From patent US9642854B2, “Flavanoid compounds and process for preparation thereof” (Council of Scientific & Industrial Research, priority 2009, dated 2017)
In brackets after ≈: the same amount, converted by molar mass. Read-outs that look alike come from different tables or passages of the source.

Experiments:
H. pylori ATCC 43504 = assay: Transmission electron microscopy of morphological transformation; format: cell-based, Helicobacter pylori; conditions: 24 h
Source text: The morphological alteration of H. pylori cells (ATCC® 43504) exposed to various concentrations of CPP-1 was further examined using transmission electron microscopy (Dai et al., 2005). […] Samples were dehydrated, embedded in SPUR, sections cut and applied to copper grids. The grids were contrasted with uranyl acetate and lead citrate and the sections were examined on a transmission electron microscope.

[1] = system: H. pylori clinical strain HP001; assay: Acridine orange fluorescence microscopy of morphological transformation; format: cell-based, Helicobacter pylori; conditions: 24 h
Method: Acridine orange fluorescence microscopic evidence is provided. The details of experimental procedures are provided under Experiment 9.
For the purpose of fluorescence staining, a bacterial smear was prepared, fixed with methanol for 2 min, stained with 0.1% acridine orange solution for 2-3 min, rinsed thoroughly with distilled water (Haqqani, 2001) and observed under fluorescence microscopy using 1-3 filter (emission wavelength 510 nm). The live organism appeared as orange color in the dark background and the non-viable cells as green (Shirai et al., 2000).

[2] = target: T1, pig gastric H^+,K^+-ATPase (Sus scrofa, UniProt P19156); assay: Gastric H+,K+-ATPase activity assay; format: biochemical
T1 construct: tubulovesicular and apical membranes, isolated from freshly slaughtered pig gastric mucosa; from tissue; host or cells: pig gastric mucosa (membrane fraction by density gradient centrifugation)
Method: The data are averages of 3-4 determinations each carried out in triplicate. The assay system contained 10 mM PIPES-Tris (pH 6.8), 2 mM each of ATP and MgCl2 with or without 10 mM KCl and about […] in a final volume of 1 mL. Both blank and experimental tubes with or without CPP-1 at different concentrations were preincubated with otherwise complete assay mixture at 37° C. for 10 min before initiating the reaction with the substrate ATP. K^+-stimulated activity referred to as H^+,K^+-ATPase activity, was calculated as the difference between the activity in presence of Mg^2+ plus K^+ and the basal activity (Mg^2+-ATPase) in presence of Mg2^+ alone. The specific activity of H^+,K^+-ATPase in control sets was in the range of 40-50 μmole Pi/mg protein/h.
The effect of CPP-1 on gastric H^+K^+-ATPase was investigated. Isolation of pig gastric mucosal membranes, rich in H^+,K^+-ATPase activity, was carried out by density gradient centrifugation technique (Ray, 1978). The enzyme assay system contained 10 mM PIPES-Tris (pH 6.8), 2 mM each of ATP and MgCl with or without 10 mM KCl and about […] in a final volume of 1 mL. Both blank and experimental tubes with or without CPP-1 at different concentrations were preincubated with otherwise complete assay mixture at 37° C. for 10 min before initiating the reaction with the substrate ATP. After appropriate time of incubation with ATP at 37° C., the reaction was terminated with the addition of 1 mL of ice-cold TCA (14%, w/v). The liberated inorganic phosphate (Pi) was estimated essentially by the method of Sanui (1974). K^+-stimulated activity referred to as H^+,K^+-ATPase activity, was calculated as the difference between the activity in presence of Mg^2+ plus K^+ and the basal activity (Mg^2+-ATPase) in presence of Mg^2+ alone. The specific activity of H^+,K^+-ATPase was expressed as micromoles of Pi liberated per hour per milligram protein. The data are averages of 3-4 determinations each carried out in triplicate. The specific activity of H^+,K^+-ATPase in control sets was in the range of 40-50 μmole Pi/mg protein/h.

H. pylori = assay: Anti H. pylori spectrum (MIC) by agar dilution method; format: cell-based, Helicobacter pylori; conditions: Helicobacter pylori; for MIC50: MIC against 50% of the strains of the panel, read-out: MIC50
How it was run: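 Agar dilution per CLSI against six clinical isolates and four standard strains on BHI agar with 7% FCS, 0.5% IsoVitalex and DENT. Inoculum ~10^8 CFU/mL; 2-fold compound dilutions from 1.56-100; 72 h microaerophilic at 37 °C. MIC read visually as no growth, in duplicate; MIC50 covers 50% of strains.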

gastric parietal cell = assay: Basal acid secretion in gastric parietal cell ([14C]-aminopyrine uptake ratio); format: cell-based, rabbit
Method: Dose-dependent inhibition of aminopyrine (AP) uptake ratio in parietal cell suspension after CPP-1 treatment was measured.
Parietal cells (PC) were isolated from New Zealand White rabbits (weighing ^˜2.5 kg) essentially according to Berglindh (1984) and as modified by Mazzeo et al. (1988). The PC preparations were nearly 90% pure and viable. The effect of CPP-1 on basal and histamine stimulated acid secretion in parietal cells was examined as follows. The PC suspension was incubated for 10 min at 37° C. with gentle stirring and continuous slow top gassing with oxygen. The [^14C]-aminopyrine (115 mCi/mmole) was added to the suspension at […], and incubation was continued for another 10 min. One-milliliter aliquot of PC (^˜5×10^6 cells) was added to various concentrations of CPP-1 in the presence and the absence of histamine (0.1 mM) and incubated for 20 min at 37° C. with slow shaking and oxygen top gassing. At the end of the incubation, the PC suspensions were centrifuged, supernatant carefully aspired off and the pellets solubilized in scintillation fluid containing Triton X-100. The resulting solution was counted in a liquid scintillation counter. The aminopyrine accumulation was determined as the ratio of intra- to extracellular aminopyrine according to Mazzeo et al. (1988).

T1 sequence (P19156 2-1034 limits assumed): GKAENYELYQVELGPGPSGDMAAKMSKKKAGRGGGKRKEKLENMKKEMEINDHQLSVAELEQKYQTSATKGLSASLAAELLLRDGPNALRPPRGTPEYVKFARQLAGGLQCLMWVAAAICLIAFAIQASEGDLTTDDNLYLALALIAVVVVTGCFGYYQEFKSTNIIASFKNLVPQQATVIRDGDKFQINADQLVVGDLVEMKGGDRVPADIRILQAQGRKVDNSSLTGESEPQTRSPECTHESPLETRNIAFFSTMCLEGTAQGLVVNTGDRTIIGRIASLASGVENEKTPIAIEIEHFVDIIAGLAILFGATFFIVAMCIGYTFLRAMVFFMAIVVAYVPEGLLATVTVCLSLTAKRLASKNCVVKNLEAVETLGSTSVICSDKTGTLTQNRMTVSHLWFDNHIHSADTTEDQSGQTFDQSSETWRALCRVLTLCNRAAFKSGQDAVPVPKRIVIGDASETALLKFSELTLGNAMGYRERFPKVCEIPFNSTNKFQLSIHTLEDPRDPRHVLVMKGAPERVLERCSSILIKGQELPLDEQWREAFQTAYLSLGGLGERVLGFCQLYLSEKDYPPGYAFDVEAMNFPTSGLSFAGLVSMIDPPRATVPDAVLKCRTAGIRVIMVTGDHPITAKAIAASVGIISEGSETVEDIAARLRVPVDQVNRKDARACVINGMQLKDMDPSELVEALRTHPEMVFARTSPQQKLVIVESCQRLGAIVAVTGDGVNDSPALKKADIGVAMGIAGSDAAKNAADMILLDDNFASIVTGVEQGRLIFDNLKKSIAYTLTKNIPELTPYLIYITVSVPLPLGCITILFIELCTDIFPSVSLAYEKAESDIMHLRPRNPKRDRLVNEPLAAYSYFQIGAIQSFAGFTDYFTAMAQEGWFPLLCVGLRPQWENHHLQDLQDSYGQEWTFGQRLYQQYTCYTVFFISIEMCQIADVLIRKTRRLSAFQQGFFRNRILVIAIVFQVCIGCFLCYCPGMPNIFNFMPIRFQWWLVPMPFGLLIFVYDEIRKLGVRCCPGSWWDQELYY
T1 sequence (P18434 whole entry partner): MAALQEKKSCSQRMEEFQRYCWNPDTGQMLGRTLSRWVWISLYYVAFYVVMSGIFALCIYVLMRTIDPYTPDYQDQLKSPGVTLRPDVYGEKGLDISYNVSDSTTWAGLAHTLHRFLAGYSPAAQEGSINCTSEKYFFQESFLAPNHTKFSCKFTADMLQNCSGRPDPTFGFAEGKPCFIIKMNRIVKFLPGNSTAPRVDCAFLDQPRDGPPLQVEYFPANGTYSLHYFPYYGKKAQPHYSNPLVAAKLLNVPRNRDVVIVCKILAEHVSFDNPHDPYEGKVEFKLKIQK

`O=c1cc(-c2ccccc2)oc2cc(OCCCCCCN3CCCCC3)cc(O)c12` [CPP-1, 5-Hydroxy-2-phenyl-7-(6-piperidin-1-yl-hexyloxy)-chromen-4-one] was tested, and the “morphological alteration (transmission electron microscope)” value (H. pylori ATCC 43504; 6.25 μg/mL) was “only few bacteria with intact shape and structure”, the “morphological alteration (transmission electron micrographs)” value (H. pylori ATCC 43504; 6.25 or […]) was “induced swelling and vacuole like structures in the cytoplasm of H. pylori cells” and the “morphological alteration (transmission electron microscope)” value (H. pylori ATCC 43504; […]) was “most cells were found to be progressively swollen and destroyed”. For the same molecule, the “morphological alteration (fluorescence microscopy)” value ([1]; 3.125 mg/mL (so in the source)) was “resembled almost like control with some deformation”, the “morphological alteration (fluorescence microscopy)” value ([1]; 6.25 and […] (so in the source)) was “progressively deteriorating cell population leading to more of non-viable cells (green fluorescence) and coccid formation” and the IC50 [2] was 23.7 µM. For the same molecule, the “Percent inhibition of H^+, K^+-ATPase activity” value ([2]; 1 mg/assay (so in the source)) was 20%, the “Percent inhibition of H^+, K^+-ATPase activity” value ([2]; 5 mg/assay (so in the source)) was 30% and the “inhibition of H^+,K^+-ATPase” value ([2]; dose range of 1-10 μg/assay) was 10-50%. The MIC50 (H. pylori; 72 h) was roughly 3.12 µg/mL (≈ 7.41 µM), the MIC (H. pylori; 72 h, panel of 6 clinical isolates and 4 standard strains, read-out: MIC Range) was 3.12 to 25 µg/mL (≈ 7.41 to 59.3 µM) and the MIC50 (H. pylori) was 3.12 µg/mL (≈ 7.41 µM). For the same molecule, the MIC (H. pylori; clinical strain HP001, read-out: MIC) was 6.25 µg/mL (≈ 14.8 µM), the MIC (H. pylori; clinical strain HP002, read-out: MIC) was 6.25 µg/mL (≈ 14.8 µM) and the MIC (H. pylori; clinical strain HP003, read-out: MIC) was less than 3.12 µg/mL. It also gave an MIC (H. pylori; clinical strain HP004, read-out: MIC) of less than 3.12 µg/mL, an MIC (H. pylori; clinical strain HP005, read-out: MIC) of less than 3.12 µg/mL and an MIC (H. pylori; clinical strain HP006, read-out: MIC) of less than 3.12 µg/mL. It also gave an MIC (H. pylori; standard strain 43504, read-out: MIC) of 6.25 µg/mL (≈ 14.8 µM), an MIC (H. pylori; standard strain 43629, read-out: MIC) of 25 µg/mL (≈ 59.3 µM) and an MIC (H. pylori; standard strain 49503, read-out: MIC) of 6.25 µg/mL (≈ 14.8 µM). The MIC (H. pylori; standard strain 700392, read-out: MIC) was 3.12 µg/mL (≈ 7.41 µM), the IC50 (gastric parietal cell; Oryctolagus cuniculus, rabbit gastric parietal cell, aminopyrine uptake ratio) was roughly 5 µg/mL and the “fold less potent than omeprazole in inhibiting basal acid secretion” value (gastric parietal cell; parietal cells) was 2-3 fold. For the same molecule, the “potency relative to cimetidine, basal acid secretion” value (gastric parietal cell; parietal cells) was “much more potent than cimetidine”.
